Legend:
[1] = target: T1, ERK2 (Homo sapiens, UniProt P28482); assay: ERK2 Rapidfire Mass Spectrometry Inhibition of Catalysis Assay; type: biochemical; settings: 1.2 nM ERK2, 16 μM Erktide, 120 μM ATP (measured Km), 15 minute pre-incubation; read-out: ERK2 Mass Spectrometry Enzyme IC50
T1 construct: made in house
Procedure, shortened: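 In-house MEK-activated ERK2 (1.2 nM) in 50 mM Tris pH 7.5, 10 mM MgCl2, 0.1 mM EGTA, 10 mM DTT, 0.01% CHAPS; 12-point dose range 10–0.0000125 μM, 1% DMSO. Reaction 20 min at room temperature, formic acid quench; Erktide and phospho-Erktide measured by RapidFire mass spectrometry to give IC50.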

[2] = system: H2122 cell line; assay: Combination cell growth inhibition (Sytox Green, Loewe synergy), H2122; type: cell-based, human; settings: Example 18 with selumetinib, 6x6 dosing matrix 0-10 μmol/L, 3 days, Loewe model, average of three or more experiments
Source text: (§1) A549 is a human non small cell lung cancer line carrying an oncogenic mutation in the KRAS gene (G12S). H2122 is a human non small cell lung cancer line carrying an oncogenic mutation in the KRAS gene (G12C). H2009 is a human non small cell lung cancer line carrying an oncogenic mutation in the KRAS gene (G12A). Calu6 is a human non small cell lung cancer line carrying mutation in the KRAS ([…]) gene. All cell lines were obtained from the American Type Culture Collection.
(§2) All cell line were maintained at 37° C. and 5% CO2 in a humidified atmosphere and grown in RPMI-1640 growth media supplemented with 10% FBS and 2 mmol/L glutamine. […]
(§3) Cells were seeded in 384-well black, clear bottomed plates (Greiner Bio-One, Stonehouse, UK), cultured for 18-24 hours and treated with increasing concentrations of Example 18 and selumetinib (0-10 μmol/L) in a 6×6 dosing matrix. […] After 3 days of treatment, live cell number was determined using a Sytox Green endpoint as described previously (“Davies B R, Greenwood H, Dudley P, et al: Preclinical pharmacology of AZD5363, an inhibitor of AKT: Pharmacodynamics, antitumor activity, and correlation of monotherapy activity with genetic background. Mol Cancer Ther 11(4):873-87, 2012”). […] Cells were then permeabilised by the overnight addition of saponin (0.03% final concentration, diluted in TBS-EDTA buffer) and a total cell count measured. […]

[3] = system: H2009 cell line; assay: Combination cell growth inhibition (Sytox Green, Loewe synergy), H2009; type: cell-based, human; settings: Example 18 with selumetinib, 6x6 dosing matrix 0-10 μmol/L, 3 days, Loewe model, average of three or more experiments
Source text: as §1, §2, §3

[4] = system: Calu6 cell line; assay: Combination cell growth inhibition (Sytox Green, Loewe synergy), Calu6; type: cell-based, human; settings: Example 18 with selumetinib, 6x6 dosing matrix 0-10 μmol/L, 3 days, Loewe model, average of three or more experiments
Source text: as §1, §2, §3

T1 sequence (P28482 whole entry): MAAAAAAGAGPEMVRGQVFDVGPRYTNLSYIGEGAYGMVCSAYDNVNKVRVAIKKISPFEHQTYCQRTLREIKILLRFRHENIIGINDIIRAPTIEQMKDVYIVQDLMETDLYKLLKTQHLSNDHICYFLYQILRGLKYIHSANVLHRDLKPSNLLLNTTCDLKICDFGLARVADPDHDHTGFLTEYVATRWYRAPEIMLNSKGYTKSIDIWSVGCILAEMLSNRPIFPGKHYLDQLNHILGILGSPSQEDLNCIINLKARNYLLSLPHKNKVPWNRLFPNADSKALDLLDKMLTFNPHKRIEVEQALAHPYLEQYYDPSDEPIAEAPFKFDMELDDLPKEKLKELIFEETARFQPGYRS

IC50 [1]: 0.6 nM
SMILES: COC[C@H]1Cn2cc(-c3nc(Nc4ccnn4C)ncc3C)nc2C(=O)N1Cc1ccc(F)c(F)c1 [Example 18, (R)-7-(3,4-Difluorobenzyl)-6-(methoxymethyl)-2-(5-methyl-2-((1-methyl-1H-pyrazol-5-yl)amino)pyrimidin-4-yl)-6,7-dihydroimidazo[1,2-a]pyrazin-8(5H)-one]
Synergy score [2]: 14.3 | Synergy score [3]: 67.5 | Synergy score [4]: 3
